Legend:
[1] = biological target: T1, truncated tau (amino acids 297-391) in solution binding to solid-phase bound truncated tau (residues 297-390) (Homo sapiens, UniProt P10636); assay: Solid phase assay for tau aggregation (tau-tau binding, B50); details: concentration at which tau-tau binding is decreased by 50%; mean ± SE
T1 construct: made in house
Excerpt: The tau-tau aggregation assay uses purified recombinant tau fragments in a solid-phase immunoassay. Methods are described in detail in e.g. WO 96/30766. Briefly, the assay measures the binding of truncated tau (amino acids 297-391) in solution to solid-phase bound truncated tau (residues 297-390). Binding of the former is detected with the antibody mAb 423, which specifically recognises peptides containing a C-terminal Glu-391 residue. The Tau complex formed in vitro is similar to the aggregated complex that forms in Alzheimer's disease as a consequence of the stability of the pathological Tau-Tau binding interaction through a 94/95-amino acid repeat domain (residues 297-390), found in the proteolytically stable core of the paired helical filament.
The B50 value (expressed as mean±SE) is determined as the concentration of compound at which tau-tau binding is decreased by 50%.

[2] = Pharmacokinetics: plasma concentration of the MT moiety in pig; type: in vivo; details: oral doses 2 and 15 mg/kg
[3] = Solubility of LMT salts in aqueous HCl solutions at 37° C.; type: physicochemical; details: aqueous HCl solution pH 2.00 (21.4° C.); lower limit complete dissolution, upper limit saturation
Protocol: Two aqueous solutions (pH 2.00 and 3.01 at 21.4° C.) were prepared by carefully adding HCl (5 M) to deionised water. In each experiment a 5 ml aliquot of one of the aforementioned solutions was heated to 37° C. […] This step was repeated until no further dissolution took place.

[4] = pH dependence of solubility of LMT.2MsOH in buffered aqueous solutions at 25° C.; type: physicochemical; details: aqueous buffer, thermodynamic from solid
Protocol: In related experiments three buffered stock solutions were prepared (pH 2, pH 3, and pH 7) as follows: A solution of (0.2 M) potassium chloride (KCl) (0.745 g in 50 mL of deionised water) was initially prepared. From this solution 50 mL was taken and diluted with approximately 80 mL of deionised water. A (0.2 M) hydrochloric acid (HCl) solution was then used to adjust the pH to 2, before further dilution with deionised water to make up to 200 mL. A final pH of 2.00 at 21.6° C. was recorded. A solution of (0.1 M) potassium hydrogen phthalate (2.042 g in 100 mL of deionised water) was initially prepared. From this solution 100 mL was taken and diluted with approximately 50 mL of deionised water. A 0.2 M HCl solution was then used to adjust the pH to 3, before further dilution with deionised water to make up to 200 mL. A final pH of 2.99 at 21.7° C. was recorded. A solution of (0.1 M) potassium phosphate monobasic (KH2PO4) (1.370 g in 100 mL of deionised water) was initially prepared. From this solution 100 mL was taken and diluted with approximately 80 mL of deionised water. A 0.5 M sodium hydroxide (NaOH) solution was then used to adjust the pH to 7, before further dilution with deionised water to make up to 200 mL. A final pH of 7.07 at 22° C. was recorded. […] This vial was placed into a water bath set at 25° C. To the solution was added LMT.2MsOH in 1-1.5 g portions. After each addition, a 10 minutes stir time was allowed to ensure maximum opportunity for dissolution. The homogeneity of the mixture was judged by eye. If solid was still present, after the stir time, as judged by visual inspection, the saturation point was judged to have been reached. The viscosity of the resulting mixtures precluded adequate isolation of the excess solid, therefore it was not possible to determine exact solubility values.

[5] = tested on: rats; assay: Studies on the hemopoietic system (methemoglobinemia), rat; type: in vivo
[6] = tested on: rat, stomach (non glandular); assay: Gastric irritation: 28-day rat study with LMT.2MsOH; type: in vivo; parameters: key to Gastritis, grade 2 (slight): incidence / Gastritis, grade 3 (moderate): incidence / Gastritis, total incidence / Inflammatory cell infiltration, grade 1 (minimal): incidence / Inflammatory cell infiltration, grade 2 (slight): incidence / Gastritis, grade 1 (minimal): incidence: “—” = finding not present; 1 = minimal; 2 = slight; 3 = moderate; 4 = moderately severe; 5 = severe; details: for Gastritis, total incidence / Gastritis, grade 1 (minimal): incidence / Gastritis, grade 2 (slight): incidence / Gastritis, grade 3 (moderate): incidence / Inflammatory cell infiltration, grade 1 (minimal): incidence / Inflammatory cell infiltration, grade 2 (slight): incidence: 90 mg/kg/day, 28-day, 10 examined; for Gastritis, total incidence: number of animals; for Gastritis, grade 1 (minimal): incidence / Gastritis, grade 2 (slight): incidence / Gastritis, grade 3 (moderate): incidence / Inflammatory cell infiltration, grade 1 (minimal): incidence / Inflammatory cell infiltration, grade 2 (slight): incidence: terminal kill, cell = number of animals
Excerpt: Study (28-day rat study with LMT.2MsOH): Incidence and severity of selected microscopic findings in sternum, liver, spleen and stomach from terminal animals

[7] = tested on: female Wistar rats; assay: 14 day oral administration to rats: toxicology and neutrophil response; type: in vivo
Excerpt: Table: Neutrophil response in rats following 14 day oral administration of different salt forms of LMT.

[8] = tested on: minipigs; assay: Studies on the hemopoietic system (methemoglobinemia), minipig; type: in vivo
Protocol: Studies on the hemopoietic system were performed in rat, monkey and minipig.

[9] = biological target: full-length human tau protein (htau40) and truncated tau (295-390, dGA) in 3T6 mouse cells (Homo sapiens, UniProt P10636); assay: Cell-based tau aggregation assay
[10] = Dynamic vapour sorption (DVS); type: physicochemical; details: crystalline, 25° C., relative humidity range between 0% and 70%
Protocol: FIGS. 15a and 15b show the dynamic vapour sorption (DVS) curve for crystalline LMT.2MsOH measured at 25° C. with 5%/h scanning rate. The horizontal dashed lines indicate steps of water uptake of one equivalent. […] Above this r.h., the water uptake increased rapidly, and the sample ultimately deliquesced. Upon drying, the water content decreased again to approximately 4 equiv. at 50% r.h.
Projekt Messtechnik SPS 11-100n water vapor sorption analyzer. The samples were placed in aluminum crucibles on top of a microbalance and were equilibrated at 25° C. and 50% r.h. before starting a pre-defined humidity program at 25° C. (50-0-95-50% r.h., scanning with Δ r.h.=5% h^−1 and with ‘isohumid’ equilibration periods at the extreme values).

T1 sequence (P10636 614-708): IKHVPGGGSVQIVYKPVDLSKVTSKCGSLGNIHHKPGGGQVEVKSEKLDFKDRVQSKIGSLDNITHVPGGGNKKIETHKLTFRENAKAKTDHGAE
T1 sequence (P10636 614-707): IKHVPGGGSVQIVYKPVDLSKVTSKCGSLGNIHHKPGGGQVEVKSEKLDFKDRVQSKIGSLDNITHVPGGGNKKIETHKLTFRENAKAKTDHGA

CN(C)c1ccc2c(c1)Sc1cc(N(C)C)ccc1N2.CS(=O)(=O)O.CS(=O)(=O)O [LMT.2MsOH, N,N,N′,N′-tetramethyl-10H-phenothiazine-3,7-diaminium bis(methanesulfonate)]
IC50 [1]: 238 ± 74.2 µM | Cmax of MT moiety in plasma, fold greater than that for LMT.2HCl or LMT.2HBr [2]: more than 2 fold | Tmax ([2]; plasma): 1 h | Solubility g/5 ml (37° C.) [3]: 8.825-9.943 g/5 ml | solubility at 10 min ([4]; buffered aqueous solution pH 2.00, 25° C.): 1600 to 1770 mg/mL | solubility at 10 min ([4]; buffered aqueous solution pH 2.99, 25° C.): 1980 to 2090 mg/mL | solubility at 10 min ([4]; buffered aqueous solution pH 7.07, 25° C.): 2030 to 2110 mg/mL | Lowest dose at which methemoglobinemia was observed [5]: 30 mg MT/kg/day | Gastric irritation compared with LMT.2HBr ([6]; 28-day rat studies): less gastric irritation | Gastritis, total incidence ([6]; female rats): 3 | Gastritis, grade 1 (minimal): incidence ([6]; female rats): — | Gastritis, grade 2 (slight): incidence ([6]; female rats): 2 | Gastritis, grade 3 (moderate): incidence ([6]; female rats): 1 | Inflammatory cell infiltration, grade 1 (minimal): incidence ([6]; female rats): 4 | Inflammatory cell infiltration, grade 2 (slight): incidence ([6]; female rats): 1 | Gastritis, total incidence ([6]; male rats): 2 | Gastritis, grade 1 (minimal): incidence ([6]; male rats): — | Gastritis, grade 2 (slight): incidence ([6]; male rats): 2 | Gastritis, grade 3 (moderate): incidence ([6]; male rats): — | Inflammatory cell infiltration, grade 1 (minimal): incidence ([6]; male rats): 4 | Inflammatory cell infiltration, grade 2 (slight): incidence ([6]; male rats): — | Neutropaenia in prepared blood smears (mature neutrophils) ([7]; 14 days): no decrease | Neutrophils (total neutrophils as percentage of total white cells) ([7]; 14 days oral, 95 mg MT/kg/day Days 1-10, 60 mg MT/kg/day Days 11-14): 18.30% | Dose-related deaths ([7]; 14 days oral, animal numbers per group of 8 rats): 0/8 | Early neutrophils (frequency of presence of immature neutrophils per animal group) ([7]; 14 days oral, animals per group of 8): 1/8 | Lowest dose at which methemoglobinemia was observed [8]: 10 mg MT/kg/day | Methemoglobinemia ([8]; 3 mg MT/kg/day, first 28-days of dosing in the 9-month study): no indications of methemoglobinemia | EC50 [9]: 0.19 ± 0.04 µM | therapeutic index greater compared with MTC [9]: 63% | THx, therapeutic index (THx = LD50/EC50) ([9]; LD50/EC50): 179 | Weight change in dynamic vapour sorption [10]: less than 0.5%
